Data reported in US9012431B2, “Boron-containing small molecules as anti-inflammatory agents” (Anacor Pharmaceuticals, Inc., priority 2008, dated 2015).

Columns and labels:
IL-10 = experiment: Cytokine assay, IL-10 release from PBMC; assay type: cell-based; settings: human PBMC, 20 ug/mL PHA; for IC50: supernatant at 48 hours; for inhibition at 10 µM: 48 hours
Experimental: (§1) The ability of the compounds described herein to inhibit pro-inflammatory cytokines or phsophodiesterases were tested.
(§2) Frozen human peripheral blood mononucleocytes (PBMC) were thawed and centrifuged. Cryopreservation media was aspirated off of the cell pellet, and the cells were resuspended in fresh culture media (CM) comprising RPMI 1640 and 10% FBS in 96 well plates. Test article was dissolved in DMSO to form a 10 mM sample (DMSO, 100%). The 10 mM samples were diluted to 100 μM in CM (DMSO, 1%), then further diluted to 10, 1, 0.1, 0.01 μM in 200 μL of CM (n=3). […] IL-23 was assayed using a commercial ELISA kit (R&D Systems).

IFN-γ = experiment: Cytokine assay, IFN-γ release from PBMC; assay type: cell-based; settings: human PBMC, 20 ug/mL PHA; for IC50: supernatant at 24 hours; for inhibition at 10 µM: 24 hours
Experimental: as §1, §2

TNF-α = experiment: Cytokine assay, TNF-α release from PBMC; assay type: cell-based; settings: 1 μg/mL LPS; for IC50: Homo sapiens, PBMC, 24 h, supernatant at 24 hours; for inhibition at 10 µM: human PBMC, 24 hours
Experimental: as §1, §2

IL-5 = experiment: Cytokine assay, IL-5 release from PBMC; assay type: cell-based; settings: human PBMC, 20 ug/mL PHA; for IC50: supernatant at 48 hours; for inhibition at 10 µM: 48 hours
Experimental: as §1, §2

IL-2 = experiment: Cytokine assay, IL-2 release from PBMC; assay type: cell-based; settings: human PBMC, 20 ug/mL PHA; for IC50: supernatant at 24 hours; for inhibition at 10 µM: 24 hours
Experimental: as §1, §2

[1] = tested on: T1, PDE4 partially purified from human U-937 myeloid leukemia cells; experiment: PDE4 Assay (enzyme from U-937 cells, [3H]cAMP); assay type: biochemical; settings: PDE4 from U-937 cells, Tris buffer pH 7.5, 20 minutes at 25° C.
T1 construct: PDE4 partially purified from human U-937 myeloid leukemia cells was used
Experimental: Test article and/or vehicle was incubated with 0.2 mg enzyme and 1 mM cAMP containing 0.01 mM [3H]cAMP in Tris buffer pH 7.5 for 20 minutes at 25° C. The reaction was terminated by boiling for 2 minutes and the resulting AMP is converted to adenosine by addition of 10 mg/ml snake venom nucleotidase and further incubation at 37° C. for 10 minutes. Unhydrolyzed cAMP is bound to AG1-X2 resin, and remaining [3H]Adenosine in the aqueous phase is quantitated by scintillation counting.

SMILES | IC50 (IFN-γ) [µM] | IC50 (TNF-α) [µM] | IC50 (IL-2) [µM] | IC50 [1] [µM] | further results
N#Cc1ccc(Oc2ccc3c(c2)COB3O)cc1C(=O)O [D8, 5-(3-Carboxy-4-cyanophenoxy)-1,3-dihydro-1-hydroxy-2,1-benzoxaborole] | > 10 | > 10 | 1 to 4 |  | IC50 (IL-10): > 10 µM; IC50 (IL-5): > 10 µM
N#Cc1ccc(Oc2ccc3c(c2)COB3O)c(OCC(=O)O)c1 [D17, 5-[2-(Carboxymethoxy)-4-cyanophenoxy]-1,3-dihydro-1-hydroxy-2,1-benzoxaborole] | > 10 | 4 to 10 | > 10 | < 1 | 
O=C(O)c1ccc(Oc2ccc3c(c2)COB3O)c(O)c1 [D18, 5-(4-Carboxy-2-hydroxyphenoxy)-1,3-dihydro-1-hydroxy-2,1-benzoxaborole] | > 10 | > 10 | > 10 |  | 
CCOC(=O)c1ccc(Oc2ccc3c(c2)COB3O)c(O)c1 [D19, 5-(4-Ethoxycarbonyl-2-hydroxyphenoxy)-1,3-dihydro-1-hydroxy-2,1-benzoxaborole] | 1 to 4 | 1 to 4 | 1 to 4 | < 1 | 
CCOC(=O)c1ccc(Oc2ccc3c(c2)COB3O)c(OC)c1 [D20, 5-(4-Ethoxycarbonyl-2-methoxyphenoxy)-1,3-dihydro-1-hydroxy-2,1-benzoxaborole] | < 1 | < 1 | < 1 | < 1 | 
CCOC(=O)c1ccc(Oc2ccc3c(c2)COB3O)c(OC2CCCC2)c1 [D21, 5-[4-Ethoxycarbonyl-2-(cyclopentyloxy)phenoxy]-1,3-dihydro-1-hydroxy-2,1-benzoxaborole] | < 1 | 1 to 4 | < 1 | < 1 | 
N#Cc1ccc(Oc2ccc3c(c2)COB3O)c(C=O)c1 [D23, 5-(4-Cyano-2-formylphenoxy)-1,3-dihydro-1-hydroxy-2,1-benzoxaborole] |  | 4 to 10 |  |  | 
N#Cc1ccc(Oc2ccc3c(c2)COB3O)cc1OCC(=O)O [D39, [2-Cyano-5-(1-hydroxy-1,3-dihydro-benzo[c][1,2]oxaborol-5-yloxy)-phenoxy]-acetic acid] |  |  |  |  | inhibition at 10 µM (IFN-γ): 30 to 60%; inhibition at 10 µM (TNF-α): 30 to 60%; inhibition at 10 µM (IL-5): < 30%; inhibition at 10 µM (IL-2): 30 to 60%
CC1CCN(C(=O)COc2cc(Oc3ccc4c(c3)COB4O)ccc2C#N)CC1 [D42, 4-(1-Hydroxy-1,3-dihydro-benzo[c][1,2]oxaborol-5-yloxy)-2-[2-(4-methyl-piperidin-1-yl)-2-oxo-ethoxy]-benzonitrile] |  |  |  |  | inhibition at 10 µM (IL-10): 60 to 90%; inhibition at 10 µM (IFN-γ): 90 to 100%; inhibition at 10 µM (TNF-α): 60 to 90%; inhibition at 10 µM (IL-5): 60 to 90%; inhibition at 10 µM (IL-2): 90 to 100%
C[NH+]1CCN(C(=O)COc2cc(Oc3ccc4c(c3)COB4O)ccc2C#N)CC1 [D43, 4-(1-Hydroxy-1,3-dihydro-benzo[c][1,2]oxaborol-5-yloxy)-2-[2-(4-methyl-piperazin-1-yl)-2-oxo-ethoxy]-benzonitrile hexafluorophosphate] |  |  |  |  | inhibition at 10 µM (IL-10): 60 to 90%; inhibition at 10 µM (IFN-γ): 60 to 90%; inhibition at 10 µM (TNF-α): < 30%; inhibition at 10 µM (IL-5): 60 to 90%; inhibition at 10 µM (IL-2): 90 to 100%
O=C(O)c1cnc(Oc2ccc3c(c2)COB3O)c(Cl)c1 [D49, 5-Chloro-6-(1-hydroxy-1,3-dihydrobenzo[c][1,2]oxaborol-5-yloxy)nicotinic acid] | 4 to 10 | 4 to 10 | 4 to 10 | 1 to 4 | 
OCc1ccc(Oc2ccc3c(c2)COB3O)nc1 [D64, 5-(5-(Hydroxymethyl)pyridin-2-yloxy)benzo[c][1,2]oxaborol-1 (3H)-ol] | 4 to 10 | 1 to 4 | 4 to 10 |  | IC50 (IL-10): 4 to 10 µM; IC50 (IL-5): > 10 µM
CC(C)(C)/[N+]([O-])=C/c1ccc(Oc2ccc3c(c2)COB3O)nc1 [D70, (Z)—N-((6-(1-hydroxy-1,3-dihydrobenzo[c][1,2]oxaborol-5-yloxy)pyridin-3-yl)methylene)-2-methylpropan-2-amine oxide] | 1 to 4 | 1 to 4 | < 1 | 1 to 4 | 
CN(C)CCOC(=O)c1ccc(Oc2ccc3c(c2)COB3O)cc1 [D75, 4-(1-Hydroxy-1,3-dihydro-benzo[c][1,2]oxaborol-5-yloxy)-benzoic acid 2-dimethylamino-ethyl ester] | 4 to 10 | 1 to 4 | 1 to 4 |  | IC50 (IL-10): > 10 µM; IC50 (IL-5): 4 to 10 µM
O=C(NCCO)c1ccc(Oc2ccc3c(c2)COB3O)cc1 [D77, 4-(1-Hydroxy-1,3-dihydro-benzo[c][1,2]oxaborol-5-yloxy)-N-(2-hydroxy-ethyl)-benzamide] | 1 to 4 | > 10 | 1 to 4 |  | IC50 (IL-10): 4 to 10 µM; IC50 (IL-5): > 10 µM
CN1CCN(C(=O)c2ccc(Oc3ccc4c(c3)COB4O)cc2)CC1 [D79, [4-(1-Hydroxy-1,3-dihydro-benzo[c][1,2]oxaborol-5-yloxy)-phenyl]-(4-methyl-piperazin-1-yl)-methanone] | > 10 | > 10 | > 10 |  | IC50 (IL-10): > 10 µM; IC50 (IL-5): > 10 µM
CC(=O)N1CCN(C(=O)c2ccc(Oc3ccc4c(c3)COB4O)cc2)CC1 [D80, 1-{4-[4-(1-Hydroxy-1,3-dihydro-benzo[c][1,2]oxaborol-5-yloxy)-benzoyl]-piperazin-1-yl}-ethanone] | > 10 | > 10 | > 10 |  | IC50 (IL-10): > 10 µM; IC50 (IL-5): > 10 µM
CN(C)CCNC(=O)c1ccc(Oc2ccc3c(c2)COB3O)cc1 [D81, N-(2-Dimethylamino-ethyl)-4-(1-hydroxy-1,3-dihydro-benzo[c][1,2]oxaborol-5-yloxy)-benzamide] | > 10 | > 10 | > 10 |  | IC50 (IL-10): > 10 µM; IC50 (IL-5): 4 to 10 µM
N#Cc1ccc(Oc2ccc3c(c2)COB3O)nc1O [D108, 2-hydroxy-6-(1-hydroxy-1,3-dihydrobenzo[c][1,2]oxaborol-5-yloxy)nicotinonitrile] |  |  |  | 4 to 10 | 
CC(C)(C)Nc1nc(Oc2ccc3c(c2)COB3O)ccc1C#N [D129, 2-tert-butylamino-6-(1-hydroxy-1,3-dihydro-benzo[c][1,2]oxaborol-5-yloxy)-nicotinonitrile] |  | < 1 |  | < 1 | 
N#Cc1ccc(Oc2ccc3c(c2)COB3O)c(OC2CCCC2)c1 [D133, 3-(cyclopentyloxy)-4-(1-hydroxy-1,3-dihydrobenzo[c][1,2]oxaborol-5-yloxy)benzonitrile] |  | < 1 |  | < 1 | 
N#Cc1ccc(Oc2ccc3c(c2)COB3O)c(OCC2CC2)c1 [D134, 3-(cyclopropylmethoxy)-4-(1-hydroxy-1,3-dihydrobenzo[c][1,2]oxaborol-5-yloxy)benzonitrile] |  | < 1 |  | < 1 | 
N#Cc1ccc(Oc2ccc3c(c2)COB3O)c(OCC2CCCC2)c1 [D135, 3-(cyclopentylmethoxy)-4-(1-hydroxy-1,3-dihydrobenzo[c][1,2]oxaborol-5-yloxy)benzonitrile] |  | < 1 |  | < 1 | 
CC(C)COc1nc(Oc2ccc3c(c2)COB3O)ccc1C#N [D136, 6-(1-Hydroxy-1,3-dihydro-benzo[c][1,2]oxaborol-5-yloxy)-2-isobutoxy-nicotinonitrile] |  | < 1 |  | < 1 | 
